Read-outs that look alike come from different tables or passages of the source.
Legend:
Experiment in all cases: Antibacterial activity, MIC
Type in all cases: cell-based
Escherichia coli XL1 = details: 24 h incubation, 37°C
From the text: (§1) In order to evaluate the antimicrobial activity of the synthesized 4′–NO2–fenH and its Co(II) complexes 1–4, two Gram-positive (B. subtilis and S. aureus) and two Gram-negative (X. campestris and E. coli) strains were used. In general, the increased antimicrobial activity of the complexes is attributed to five main factors: (i) the chelation effect of the ligands, (ii) the chemical nature of the ligands, (iii) the nature and the nuclearity of the metal center, (iv) the total charge of the complex and (v) the presence and nature of counter ions. […]
(§2) S2 Antibacterial Activity studies
(§3) The antibacterial activity of the compounds was evaluated by determining their respective MIC values towards two Gram–(–) (Escherichia coli XL1 (E. coli) and Xanthomonas campestris ATCC 1395 (X. campestris)) and two Gram–(+) (Staphylococcus aureus ATCC 29213 (S. aureus) and Bacillus subtilis ATCC 6633 (B. subtilis)) bacterial species. Cultures of these microbial strains were grown on a rich selective agar medium and stored at 4°C. The selective media used were Nutrient Agar or Broth for B. subtilis and S. aureus, Yeast Mold Agar or Broth for X. campestris and Luria Agar or Broth for E. coli. Cells picked from the surface of the stored cultures were used to initiate liquid pre–cultures of the same selective medium at an initial turbidity of roughly 1 McFarland unit.
(§4) Pre–cultures were incubated for 24 h in a rotary shaking incubator and subsequently they were used to inoculate the test cultures used for the determination of MIC at an initial turbidity of 0.5 McFarland units. The test cultures consisted of Mueller–Hinton broth (Deben Diagnostics Ltd) containing different concentrations of the compounds. Different concentrations were achieved as follows: the compounds were freshly dissolved in DMSO to a concentration of 1 mg/mL, and they were diluted with DMSO, using the method of progressive double dilution. Therefore, working solutions with decreasing concentrations of the compounds under investigation were achieved.
(§5) The working solutions were subsequently diluted to the final desired concentration by addition to the growth medium at a proportion of 2:98. MIC values were determined as the lowest concentrations of the tested compounds that inhibited visible growth of each respective organism after a 24 h incubation. Bacterial growth was determined by measuring the turbidity of appropriately diluted cultures at 600 nm with reference to equally diluted sterile growth medium and the inhibition achieved was calculated by comparing the turbidity of each culture to the average of the turbidity of three non–inhibited cultures. All test cultures were grown in triplicates and for the determination of MIC, growth had to be inhibited in at least two cultures of the triplicate. The incubation temperature at all stages was 37°C except for X. campestris that was cultivated at 28°C [4].

[1] = test system: Staphylococcus aureus ATCC 29213; details: 24 h incubation, 37°C; for MIC: read-out: MIC, S. aureus
From the text: as §1, §2, §3, §4, §5

[2] = test system: Bacillus subtilis ATCC 6633; details: 24 h incubation, 37°C; for MIC: read-out: MIC, B. subtilis
From the text: as §1, §2, §3, §4, §5

[3] = test system: Xanthomonas campestris ATCC 33013; details: for MIC: read-out: MIC, X. campestris
From the text: as §1, §2, §3, §4, §5

[4] = value in parentheses, 24 h incubation, 28°C

SMILES | MIC, E. coli (Escherichia coli XL1) | MIC (Escherichia coli XL1; value in parentheses) | MIC, S. aureus [1] | MIC ([1]; value in parentheses) | MIC, B. subtilis [2] | MIC ([2]; value in parentheses) | MIC, X. campestris ([3]; 24 h incubation, 28°C) | MIC [3, 4] | MIC (Escherichia coli XL1; Escherichia coli, XL1) | MIC (Escherichia coli XL1; Escherichia coli, XL1, value in parentheses) | MIC ([1]; Staphylococcus aureus, ATCC29213) | MIC ([1]; Staphylococcus aureus, ATCC29213, value in parentheses) | MIC ([2]; Bacillus subtilis, ATCC6633) | MIC ([2]; Bacillus subtilis, ATCC6633, value in parentheses) | MIC ([3]; Xanthomonas campestris, ATCC33013, 24 h) | MIC ([3]; Xanthomonas campestris, ATCC33013, value in parentheses, 24 h incubation, 28°C)
C[O-].C[O-].Cc1ccc2ccc3ccc(C)nc3c2n1.Cc1ccc2ccc3ccc(C)nc3c2n1.O=C([O-])c1ccccc1Nc1ccc([N+](=O)[O-])cc1.O=C([O-])c1ccccc1Nc1ccc([N+](=O)[O-])cc1.[Co+2].[Co+2] [Complex 4, [Co2(4′–NO2–fen)2(μ–CH3O)2(neoc)2]] | > 50 µg/mL | > 45 µM | 12.5 µg/mL | 11 µM | 12.5 µg/mL | 11 µM | 12.5 µg/mL | 11 µM | – | – | – | – | – | – | – | –
O=C([O-])c1ccccc1Nc1ccc([N+](=O)[O-])cc1.O=C([O-])c1ccccc1Nc1ccc([N+](=O)[O-])cc1.[Co+2].c1cnc2c(c1)ccc1cccnc12 [Complex 3, [Co(4′–NO2–fen)2(phen)]] | 25 µg/mL | 33 µM | 25 µg/mL | 33 µM | 25 µg/mL | 33 µM | 25 µg/mL | 33 µM | – | – | – | – | – | – | – | –
O=C([O-])c1ccccc1Nc1ccc([N+](=O)[O-])cc1.O=C([O-])c1ccccc1Nc1ccc([N+](=O)[O-])cc1.[Co+2].c1ccc(Nc2ccccn2)nc1 [Complex 2, [Co(4′–NO2–fen)2(bipyam)]] | > 50 µg/mL | > 67 µM | > 50 µg/mL | > 67 µM | 25 µg/mL | 34 µM | 25 µg/mL | – | – | – | – | – | – | – | – | –
CO.CO.CO.CO.O=C([O-])c1ccccc1Nc1ccc([N+](=O)[O-])cc1.O=C([O-])c1ccccc1Nc1ccc([N+](=O)[O-])cc1.[Co+2] [Complex 1, [Co(4′–NO2–fen)2(MeOH)4]] | > 50 µg/mL | > 71 µM | 12.5 µg/mL | 18 µM | 12.5 µg/mL | 18 µM | > 50 µg/mL | > 71 µM | – | – | – | – | – | – | – | –
O=C(O)c1ccccc1Nc1ccc([N+](=O)[O-])cc1 [4′–NO2–fenH, 4′–nitrofenamic acid] | – | – | – | – | – | – | – | – | 25 µg/mL | 97 µM | 25 µg/mL | 97 µM | 12.5 µg/mL | 48 µM | 25 µg/mL | 97 µM

— article PMC12195967, “Cobalt(II) Complexes of 4′–Nitro–Fenamic Acid: Characterization and Biological Evaluation” (Molecules, 2025)
